Experimental data taken from patent publication US9962360B2, “Compositions and methods for enhancing hair growth, promoting skin regeneration, and wound healing” (The Hospital for Sick Children, priority 2014, dated 2018).

Experiments:
[1] = system: back skin wound of C57/B16 mice; assay: Full Thickness Biopsy Punch Wound model, topical application; conditions: for Ki67-positive proliferating dermal cells at the leading edge of the newly formed dermis: 7 days post-injury; for dermal tissue regeneration (layer of new dermal tissue) / epithelial gap / wound width: day 9, morphometric analysis; for CD31-positive blood vessels in the wound bed: leading edge of the newly formed dermis; for mice fully healed on day 7: topical daily, day 7 post-wounding, none of the vehicle treated controls
Protocol: The effects of Alp and TM were further validated in in vivo rodent models. The model used was a Full Thickness Biopsy Punch Wound performed on the back skin of middle-aged (9 months old) C57/B16 mice (FIGS. 2A-2I). In these experiments, the hair on the back skin was shaved to expose skin and a 6 mm diameter wound was performed with a biopsy punch. Alp, TM, or vehicle were reconstituted in a composition of water-ethanol-propylene glycol (PG) and applied daily around the wound for the duration of 9 days. Topical analysis was performed to assess the degree of wound closure as well as morphometric analysis. For the analysis of wound closure, digital photographs were taken at day 0, 3, 7, and 9 post wounding. A ruler was used to calibrate the images and the wound margins were manually outlined. The wound closure rate was calculated as a percentage of the wound size on the day of surgery as previously reported in Johnston et al., Stem Cell Reports. […] Morphometric analyses of wound parameters were performed on hematoxylin and eosin-stained paraffin tissue sections from the central portion of the wound bed. Sections were scanned and images were stitched together to show the full wound bed. Morphometric analysis of different parameters was performed as described previously in Johnston et al., supra.

neonatal rat SKPs = assay: Secondary sphere formation assay / dose-response with rat SKPs; conditions: for rat SKPs sphere number: 100 nM, neonatal rat SKPs; for sphere numbers, dose-response curve: rat SKPs
Protocol: Alp and TM were further characterized by dose-response curves with rat SKPs. […] A clonal density assay was also performed to validate the effect of drugs on SKPs self renewal and proliferation. As previously described in Jinno et al., Stem Cells 28:2027-2040, 2010, SKPs were dissociated and plated at 2,500 cells/mL in medium containing 1.6% methylcellulose. Cells were then treated with 100 nM of Alp, TM, Alp and TM, or DMSO and sphere formation was scored after 14 days. […] For comparison, cells were also treated with latanoprost (Latan), a prostaglandin (PGF2) that is bioactive in rodent and human skin. […] Finally, SKP proliferation was directly measured. Rat SKPs were cultured for 3-4 days, treated with Alp or TM daily for a further 2 days, and immunostained with the proliferation marker Ki67.

SKPs [2] = assay: 7 day sphere assay with MEK inhibition; conditions: with 100 nM trametinib
STAT3 = assay: Western blot of phosphorylated, activated STAT3 in SKPs; conditions: 100 nM
Akt1 = assay: Western blot of phosphorylated, activated Akt1 in SKPs; conditions: 100 nM
CREB = assay: Western blot of phosphorylated, activated CREB in SKPs; conditions: 100 nM
GSK3beta = assay: Western blot of phosphorylated, activated GSK3beta in SKPs; conditions: 100 nM
SKPs [3] = assay: Sphere forming assay of SKPs isolated from topically treated wound bed or skin; conditions: in vivo topical application
Protocol: To assess whether the effects of topical application of Alp and TM were specific and due to recruitment of SKPs in vivo, an experiment was performed in which the drugs were applied topically for one week on the back skin of aged wounded or not wounded mice. The wound bed or control skin was dissected and SKPs were isolated and allowed to form spheres. Secondary SKP spheres were then used in a sphere forming assay.

Rat SKPs = assay: Ki67 immunostaining of rat SKP spheres; conditions: rat SKPs cultured 3-4 days, treated daily for a further 2 days
Protocol: Finally, SKP proliferation was directly measured. Rat SKPs were cultured for 3-4 days, treated with Alp or TM daily for a further 2 days, and immunostained with the proliferation marker Ki67.

human SKPs = assay: Dose response sphere forming assay in human SKPs cultures; conditions: for human SKPs sphere number: 100 nM; for validation of hits in dose response sphere forming assays: secondary screens, rodent and human SKPs cultures
back skin of mice = assay: Skin assays: dermal thickness and proliferation after topical application; conditions: for number of Ki67 positive proliferating cells in the dermis: one week of topical treatment; for dermal thickness: three weeks of topical treatment
Protocol: Drugs were applied daily on the depilated area for the duration of three weeks. […] In the skin assays, the back hair of mice was shaved to expose skin and drugs were topically applied for the duration of one or three weeks. Skin morphology was then assessed by analyzing dermal thickness and proliferation.

ERK1/2 = assay: Western blot of phosphorylated, activated ERK1/2 in SKPs; conditions: 100 nM, SKPs cultured in FGF2 and EGF
SKPs [4] = assay: Clonal density assay in methylcellulose (SKPs self renewal and proliferation); format: cell-based; conditions: for sphere number versus control / sphere size versus control: 100 nM, scored after 14 days, 2,500 cells/mL, 1.6% methylcellulose; for sphere numbers, comparison with latanoprost: treatment for 14 days (FIG. 1L)
Excerpt: Finally, SKP proliferation was directly measured.

| Compound | Ki67-positive proliferating dermal cells at the leading edge of the newly formed dermis [1] | dermal tissue regeneration (layer of new dermal tissue) [1] | epithelial gap [1] | wound width [1] | CD31-positive blood vessels in the wound bed [1] | mice fully healed on day 7 [1] | rat SKPs sphere number (neonatal rat SKPs) | sphere numbers, dose-response curve (neonatal rat SKPs) | compensation of the trametinib-induced decrease in sphere number (SKPs [2]) | phosphorylated, activated STAT3 compared to control (STAT3) | phosphorylated, activated Akt1 compared to control (Akt1) | phosphorylated, activated CREB compared to control (CREB) | phosphorylated, activated GSK3beta compared to control (GSK3beta) | long term self-renewal of SKPs (SKPs [3]) | increase of Ki67-positive sphere cells (Rat SKPs) | human SKPs sphere number (human SKPs) | validation of hits in dose response sphere forming assays (human SKPs) | number of Ki67 positive proliferating cells in the dermis (back skin of mice) | dermal thickness (back skin of mice) | sphere numbers, comparison with latanoprost (SKPs [4]) | further results |
| --- | --- | --- | --- | --- | --- | --- | --- | --- | --- | --- | --- | --- | --- | --- | --- | --- | --- | --- | --- | --- | --- |
| CCCCC[C@H](O)/C=C/[C@H]1[C@H](O)CC(=O)[C@@H]1CCCCCCC(=O)O [Alp, alprostadil] | increased | enhanced | significantly smaller | significantly smaller | increased | almost half | increase | increased in a dose-dependent fashion | neither TM nor Alp compensated | neither Alp nor TM increased | neither Alp nor TM increased | neither Alp nor TM increased | neither Alp nor TM increased | enhance | approximately 60% | increase | confirmed | increased | increase | significant increase | increase of ERK1/2 phosphorylation over basal levels (ERK1/2): approximately two-fold; sphere number versus control (SKPs [4]): robust increase; sphere size versus control (SKPs [4]): robust increase |
| O=c1c(O)c(-c2ccc(O)cc2)oc2cc(O)cc(O)c12 [Kae, kaempferol] |  |  |  |  |  |  | increase |  |  |  |  |  |  |  |  | increase | confirmed |  |  |  |  |
| CC(C)OC(=O)CCC/C=C\C[C@@H]1[C@@H](CC[C@@H](O)CCc2ccccc2)[C@H](O)C[C@@H]1O [Latan, latanoprost] |  |  |  |  |  |  |  |  |  |  |  |  |  |  |  |  |  |  |  | significant increase |  |
| CC[N+](CC)(CC)CCOc1ccc(/C=C/c2ccccc2)cc1 [MG 624] |  |  |  |  |  |  | increase |  |  |  |  |  |  |  |  | increase | confirmed |  |  |  |  |
| CCCCOc1ccc(OCCCN2CCOCC2)cc1 [Pram, pramoxine] |  |  |  |  |  |  | increase |  |  |  |  |  |  |  |  | increase | confirmed |  |  |  |  |
| trimebutine maleate [TM] | increase | enhanced | significantly smaller | significantly smaller | increased | almost half | increase | increased in a dose-dependent fashion | neither TM nor Alp compensated | neither Alp nor TM increased | neither Alp nor TM increased | neither Alp nor TM increased | neither Alp nor TM increased | enhance | approximately 60% | increase | confirmed | increased | increase | significant increase | increase of ERK1/2 phosphorylation over basal levels (ERK1/2): approximately two-fold; sphere number versus control (SKPs [4]): robust increase; sphere size versus control (SKPs [4]): robust increase |
